System: NASH model mice
Experiment: NASH mouse model, histopathological scoring of liver sections
Type: in vivo
Conditions: for Hepatocyte ballooning ± SE: score 0-2; for Portal inflammation ± SE / Lobular Inflammation ± SE / Steatosis ± SE: score 0-3; for Fibrosis Stage ± SE: score 0-4; for NAFLD activity score (NAS) ± SE: score 0-8
Protocol: Four separate groups of mice were given either 0.5% methylcellulose (as Vehicle) or AZD3355 at 10 mg/kg (low dose) body weight of mice or 30 mg/kg (high dose) body weight of mice by twice daily (BID (5 days/week)) and OCA at 30 mg/kg body weight of mice by daily (QD (5 days/week)) through oral route for up to next 12 weeks (week 13 to week 24). Them last group of mice were not given any drug or vehicle treatment, as No Tx—24 weeks and maintained in parallel with treatment/vehicle groups. Usually all doses were given at early morning and the second daily dose of AZD3355 at evening (10 hours of intervals). All animals were closely monitored the health conditions and behavior.
A piece of tissue from large liver lobe was fixed in 10% Formalin Buffered (Astral Diagnostics Incorporated NJ) embedded in paraffin and microtome sectioning were performed. Slides containing tissue sections were baked at 60° C. for 1 hour and re-hydrated through xylene followed by graded ethanol (100%, 95%, 85% and 70%) into distilled water and processed in either Picrosirius red/Fast green or hematoxylin and eosin staining.
A total of 2 sections/animal were stained with H&E staining performed by standard protocol.
Steatosis, hepatocyte ballooning, lobular inflammation, portal inflammation and fibrosis of picroserious red/fast green and H&E stained liver section were scored according to the NASH Clinical Research Network (NASH CRN) scoring system in a blinded fashion by an expert hepato-pathologist in Icahn School of Medicine at Mount Sinai. NAFLD activity score (NAS) was calculated according to Brunt criteria and range from 0-8. NAS was calculated by the sum of scores of steatosis (0-3), hepatocyte ballooning (0-2) and lobular inflammation (0-3). NAS score of >5.0 strongly correlated with “definite-NASH” whereas <3 correlated with “not-NASH”. Fibrosis (0-4) or portal inflammation (0-3) scores were assessed separately and not included in NAS.

## NC[C@@H](F)C[PH](=O)O [AZD3355, [(2R)-3-amino-2-fluoropropyl] phosphinic acid]
♀ Mice, 10 mg/kg, vehicle 1.2 ± 0.1
  Hepatocyte ballooning ± SE: 1.3 ± 0.1
♀ Mice, 10 mg/kg, vehicle 1.6 ± 0.1
  Portal inflammation ± SE: 1.6 ± 0.1
♀ Mice, 10 mg/kg, vehicle 2.3 ± 0.1
  Lobular Inflammation ± SE: 2.5 ± 0.1
♀ Mice, 10 mg/kg, vehicle 2.5 ± 0.1
  Steatosis ± SE: 2.6 ± 0.1
♀ Mice, 10 mg/kg, vehicle 3.0 ± 0.1
  Fibrosis Stage ± SE: 3.1 ± 0.1
♀ Mice, 10 mg/kg, vehicle 6.1 ± 0.4
  NAFLD activity score (NAS) ± SE: 6.4 ± 0.4
♀ Mice, 10 mg/kg, vehicle 1.8 ± 0.2
  Steatohepatitis Grade ± SE: 2.1 ± 0.2
♀ Mice, 30 mg/kg twice daily, vehicle 1.2 ± 0.1
  Hepatocyte ballooning ± SE: 1.3 ± 0.1
♀ Mice, 30 mg/kg twice daily, vehicle 1.6 ± 0.1
  Portal inflammation ± SE: 2.0 ± 0.0
♀ Mice, 30 mg/kg twice daily, vehicle 2.3 ± 0.1
  Lobular Inflammation ± SE: 2.7 ± 0.1
♀ Mice, 30 mg/kg twice daily, vehicle 2.5 ± 0.1
  Steatosis ± SE: 2.3 ± 0.1
♀ Mice, 30 mg/kg twice daily, vehicle 3.0 ± 0.1
  Fibrosis Stage ± SE: 3.1 ± 0.1
♀ Mice, 30 mg/kg twice daily, vehicle 6.1 ± 0.4
  NAFLD activity score (NAS) ± SE: 6.4 ± 0.3
♀ Mice, 30 mg/kg twice daily, vehicle 1.8 ± 0.2
  Steatohepatitis Grade ± SE: 2.2 ± 0.2
♂ Mice, 10 mg/kg, vehicle 1.7 ± 0.1
  Hepatocyte ballooning ± SE: 1.7 ± 0.1
♂ Mice, 10 mg/kg, vehicle 2.0 ± 0.1
  Portal inflammation ± SE: 1.9 ± 0.0
♂ Mice, 10 mg/kg, vehicle 2.7 ± 0.1
  Steatosis ± SE: 2.7 ± 0.1
♂ Mice, 10 mg/kg, vehicle 2.8 ± 0.1
  Lobular Inflammation ± SE: 2.8 ± 0.1
♂ Mice, 10 mg/kg, vehicle 3.3 ± 0.1
  Fibrosis Stage ± SE: 3.2 ± 0.1
♂ Mice, 10 mg/kg, vehicle 7.2 ± 0.3
  NAFLD activity score (NAS) ± SE: 7.2 ± 0.3
♂ Mice, 10 mg/kg, vehicle 2.6 ± 0.2
  Steatohepatitis Grade ± SE: 2.7 ± 0.1
♂ Mice, 30 mg/kg twice daily, vehicle 1.7 ± 0.1
  Hepatocyte ballooning ± SE: 1.8 ± 0.1
♂ Mice, 30 mg/kg twice daily, vehicle 2.0 ± 0.1
  Portal inflammation ± SE: 2.0 ± 0.2
♂ Mice, 30 mg/kg twice daily, vehicle 2.7 ± 0.1
  Steatosis ± SE: 2.4 ± 0.1
♂ Mice, 30 mg/kg twice daily, vehicle 2.8 ± 0.1
  Lobular Inflammation ± SE: 2.6 ± 0.2
♂ Mice, 30 mg/kg twice daily, vehicle 3.3 ± 0.1
  Fibrosis Stage ± SE: 3.0 ± 0.0
♂ Mice, 30 mg/kg twice daily, vehicle 7.2 ± 0.3
  NAFLD activity score (NAS) ± SE: 6.8 ± 0.5
♂ Mice, 30 mg/kg twice daily, vehicle 2.6 ± 0.2
  Steatohepatitis Grade ± SE: 2.5 ± 0.2
